Results taken from patent EP0343223B1, “USE OF MELATONIN OR DERIVATIVES THEREOF FOR THE PRODUCTION OF PHARMACEUTICAL COMPOSITIONS EFFECTIVE TO COUNTERACT THE EFFECTS OF AGING” (priority 1987, dated 1989).

Experiments:
Type in all cases: in vivo
[1] = system: C57BL/6J inbred male mice; assay: Nocturnal oral melatonin in the drinking water of aging mice: life span and body weight
Protocol: Experiments were initiated in 1985 in which groups of C57BL/6J inbred male mice, aged 575 days (10 mice per group), were given melatonin (10 µg/ml) in the drinking water while the controls received tap water containing the same amount of absolute ethanol used to prepare melatonin stock solution (1 ml ethanol in 10 liters of tap water). The drinking water with or without melatonin was given at 6 p.m. and removed at 8.30 a.m. The drinking water was changed twice weekly. Starting at 5 months after initiation of the nocturnal, oral melatonin treatment, when the mice reached two years of age, a striking difference of body weight and of general body and pelage conditions started to be evident. Although some of the mice died earlier in both groups, the majority of the surviving mice treated with melatonin maintained their optimal body weight until 28 to 33 months of age (35.8± 4 grams) while the untreated mice lost progressively weight and were all dead within 29 months of age. Average body weight of the control mice at 27 months of age was 27.8± 4 grams.
The last melatonin-treated mouse died at 3 years of age. These date though preliminary make it evident that melatonin treatment of aging mice prolonged their life or circa 20 percent (average 6 months longer). The life span of melatonin-treated mice was 931 ± 80 days while that of control mice was 755 ± 81 days (p < 0.01).

[2] = system: T3 and T4; assay: T3 and T4 by radioimmunoassay in serum of aging mice after chronic night melatonin in drinking water
Description: It can be seen (Table 1) that chronical treatment with melatonin in the drinking water in aging mice elevates the levels of T3 ([…]) and T4 (tyroxine) in their peripheral blood and corrects thus ageing-related thyroid dysfunction or lowered function.

[3] = system: lipids in blood; assay: Lipids in blood of aging mice after chronic night melatonin treatment; conditions: data not shown
Description: It follows that the increase of the production of thyroid hormones induced in vivo by exogenous melatonin should also be accompanied by an improved degradation of cholesterol, triglycerides and phospholipids and by detoxification effects at the liver level, all these beneficial effects resulting in a slowing down of the aging process.

[4] = C3H/He female, age 23 months, 3 months of melatonin treatment
[5] = C3H/He female, age 23 months, 3 months of melatonin treatment, serum
[6] = C57BL/6 female, age 22 months, 5 months of melatonin treatment

COc1ccc2[nH]cc(CCNC(C)=O)c2c1 [melatonin]
age at death of the last melatonin-treated mouse ([1]; C57BL/6J male mice): 3 years | life span ([1]; C57BL/6J male mice, melatonin 10 µg/ml in drinking water 6 p.m. to 8.30 a.m., from 575 days of age, p < 0.01 vs control): 931 ± 80 days | body weight ([1]; surviving melatonin-treated mice, maintained until 28 to 33 months of age, 10 µg/ml in drinking water at night, started at 575 days of age): 35.8± 4 grams | average life prolongation (longer) ([1]; versus control mice): 6 months | prolonged their life ([1]; versus control mice): circa 20% | T3 change vs untreated [2, 4]: +25% | T4/T3 [2, 4]: 42.47 | T4/T3 change vs untreated [2, 4]: +18% | T4 change vs untreated [2, 4]: +34% | T3 [2, 5]: 0.664± 0.137 | T4 [2, 5]: 28.2± 0.8 | T3 change vs untreated [2, 6]: +11% | T4/T3 [2, 6]: 54.27 | T4/T3 change vs untreated [2, 6]: +10% | T4 change vs untreated [2, 6]: +20% | T3 ([2]; C57BL/6 female, age 22 months, 5 months of melatonin treatment, serum): 0.691± 0.077 | aging-related increase of lipids in blood [3]: corrects the aging-related increase of lipids in blood
